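Values below derive from 48-hour exposures of cells grown in 96-well plates, with endpoints linearly interpolated between the two concentrations bracketing the appropriate inhibition level. GI50 marks 50% less growth.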 Calls of active or inactive are those of the source. Cut-off read from the data, not from the text of the source: active = GI50 up to about 1.1 µM and inactive = higher.
Key:
Assay in all cases: NCI tumour cell line growth inhibition, 48 h
OVCAR-5 = system: OVCAR-5
RXF 393 = system: RXF 393
SN12C = system: SN12C
CCRF-CEM = system: CCRF-CEM
HT-29 = system: HT-29
CAKI-1 = system: CAKI-1
COLO 205 = system: COLO 205
U-251 = system: U-251
SF-539 = system: SF-539
ACHN = system: ACHN
SNB-75 = system: SNB-75
KM12 = system: KM12
TK-10 = system: TK-10
UACC-257 = system: UACC-257
MOLT-4 = system: MOLT-4
HCC 2998 = system: HCC 2998
NCI-H522 = system: NCI-H522
OVCAR-4 = system: OVCAR-4
SR = system: SR

Measured: GI50

COc1cc(CC2c3cc(OC)c(OC)cc3CCN2C)c(Oc2cc3c(cc2OC)-c2c(OC)c(OC)c(OC)c4c2C(C3)N(C)CC4)cc1OC (configuration not stated)
inactive: OVCAR-5 16.2 µM | RXF 393 2.9 µM | SN12C 14 µM | CCRF-CEM 16.4 µM | HT-29 8.77 µM | CAKI-1 14.8 µM | COLO 205 7.23 µM | U-251 12.6 µM | SF-539 13 µM | ACHN 15.8 µM | SNB-75 11.4 µM | KM12 12.7 µM | TK-10 15.4 µM | UACC-257 6.31 µM | MOLT-4 4.52 µM | HCC 2998 5.32 µM | NCI-H522 11.7 µM | OVCAR-4 16 µM

COc1ccc2c(c1O)C(=O)C(CCC(=O)O)CC2 (configuration not stated)
inactive: RXF 393 > 100 µM | SN12C > 100 µM | CCRF-CEM > 100 µM | HT-29 > 100 µM | CAKI-1 > 100 µM | COLO 205 > 100 µM | U-251 > 100 µM | SF-539 > 100 µM | ACHN > 100 µM | SNB-75 > 100 µM | TK-10 > 100 µM | UACC-257 > 100 µM | MOLT-4 > 100 µM | HCC 2998 > 100 µM | OVCAR-4 > 100 µM

CC(C)CCCC(C)[C@H]1CCC2[C@@H]3CCC4Nc5nocc5C[C@]4(C)C3CC[C@@]21C (some centres not stated)
inactive: OVCAR-5 > 10 µM | RXF 393 14.8 µM | SN12C 18.1 µM | CCRF-CEM 7.23 µM | HT-29 18.5 µM | CAKI-1 14.4 µM | COLO 205 6.14 µM | U-251 15.7 µM | SF-539 18.9 µM | ACHN 14.7 µM | SNB-75 15.6 µM | KM12 19.9 µM | TK-10 8.07 µM | UACC-257 19.7 µM | MOLT-4 18.2 µM | HCC 2998 15.5 µM | NCI-H522 3.15 µM | OVCAR-4 19.4 µM

COC(=O)C1=C(O)c2cc(OC)c(OC)c(OC)c2[C@H](c2cc(OC)c(OC)c(OC)c2)C1C(=O)OC (some centres not stated)
inactive: OVCAR-5 > 100 µM | RXF 393 20.7 µM | SN12C 50.8 µM | CCRF-CEM 32.8 µM | HT-29 22.8 µM | CAKI-1 > 100 µM | COLO 205 15.8 µM | U-251 36.5 µM | SF-539 14.2 µM | ACHN 46.8 µM | SNB-75 38.7 µM | KM12 21.9 µM | TK-10 > 100 µM | UACC-257 44.4 µM | MOLT-4 22.2 µM | HCC 2998 27.6 µM | NCI-H522 13.5 µM | OVCAR-4 32.6 µM

O=C(NCCc1ccccc1)C1C(=O)C(=O)N(CCc2ccccc2)C1=O (configuration not stated)
inactive: SR > 100 µM | SN12C > 100 µM | CCRF-CEM > 100 µM | HT-29 > 100 µM | CAKI-1 > 100 µM | U-251 > 100 µM | SF-539 > 100 µM | ACHN > 100 µM | SNB-75 > 100 µM | KM12 > 100 µM | TK-10 > 100 µM | UACC-257 > 100 µM | MOLT-4 > 100 µM | NCI-H522 > 100 µM

Cc1cc(N(CCC#N)CCC#N)ccc1/C=C/C(=O)Nc1ccccc1Cl
inactive: OVCAR-5 > 100 µM | SN12C > 100 µM | CCRF-CEM 45.5 µM | HT-29 > 100 µM | CAKI-1 > 100 µM | COLO 205 > 100 µM | U-251 > 100 µM | SF-539 > 100 µM | ACHN > 100 µM | SNB-75 > 100 µM | KM12 > 100 µM | TK-10 > 100 µM | UACC-257 > 100 µM | MOLT-4 > 100 µM | HCC 2998 > 100 µM | NCI-H522 > 100 µM | OVCAR-4 > 100 µM

Cc1cccc(=O)c([O-])c1.Cc1cccc(=O)c([O-])c1.[Bi+3].[Cl-]
inactive: OVCAR-5 14.9 µM | RXF 393 8.39 µM | SN12C 11.8 µM | CCRF-CEM 2.18 µM | HT-29 11.4 µM | CAKI-1 15.5 µM | U-251 11.5 µM | SF-539 12 µM | ACHN 7.31 µM | SNB-75 10 µM | KM12 11.6 µM | TK-10 17.5 µM | UACC-257 8.32 µM | MOLT-4 5.12 µM | HCC 2998 11.5 µM | NCI-H522 2.03 µM | OVCAR-4 6.07 µM

C/C=C/C(=O)Oc1cccc2cccnc12
inactive: OVCAR-5 16.5 µM | RXF 393 12.4 µM | SN12C 5.87 µM | CCRF-CEM 3.7 µM | HT-29 19.7 µM | CAKI-1 32.6 µM | COLO 205 18.6 µM | U-251 1.14 µM | SF-539 7.83 µM | ACHN 18.2 µM | SNB-75 14.4 µM | KM12 16 µM | TK-10 44.2 µM | UACC-257 4.62 µM | MOLT-4 > 20.6 µM | HCC 2998 20.6 µM | NCI-H522 1.82 µM | OVCAR-4 4.39 µM

CCCc1ccc(NCc2cc(OC)c(OC)c(OC)c2)cc1
inactive: OVCAR-5 26.6 µM | RXF 393 32.3 µM | SN12C 22.3 µM | CCRF-CEM 17.8 µM | HT-29 23.6 µM | U-251 29.6 µM | SF-539 28.3 µM | ACHN 30.6 µM | SNB-75 29 µM | KM12 23.1 µM | TK-10 59.8 µM | UACC-257 22.4 µM | MOLT-4 18.2 µM | OVCAR-4 32.4 µM

COc1ccc(OC)c(CC(C)N)c1 (configuration not stated)
inactive: RXF 393 > 100 µM | SN12C > 100 µM | CCRF-CEM > 100 µM | HT-29 > 100 µM | CAKI-1 > 100 µM | COLO 205 > 100 µM | U-251 > 100 µM | SF-539 > 100 µM | ACHN > 100 µM | SNB-75 > 100 µM | KM12 > 100 µM | TK-10 > 100 µM | UACC-257 > 100 µM | MOLT-4 > 100 µM | HCC 2998 > 100 µM | NCI-H522 > 100 µM | OVCAR-4 > 100 µM

C[C@@H](N[C@H]1CCC[C@@H]1O)c1ccccc1.C[C@@H](N[C@H]1CCC[C@H]1O)c1ccccc1
inactive: RXF 393 > 100 µM | SN12C > 100 µM | CCRF-CEM 89.9 µM | HT-29 38.1 µM | COLO 205 75.7 µM | U-251 48.1 µM | SF-539 > 100 µM | ACHN > 100 µM | SNB-75 > 100 µM | KM12 41.4 µM | TK-10 90.4 µM | UACC-257 > 100 µM | MOLT-4 51.5 µM | HCC 2998 65.8 µM | NCI-H522 > 100 µM | OVCAR-4 > 100 µM

COc1ccc2oc(-c3ccncc3)cc(=O)c2c1
inactive: OVCAR-5 > 100 µM | RXF 393 > 100 µM | SN12C 38.7 µM | CCRF-CEM 81.1 µM | HT-29 > 100 µM | CAKI-1 33.2 µM | COLO 205 > 100 µM | U-251 73.3 µM | ACHN > 100 µM | SNB-75 > 100 µM | KM12 84.5 µM | UACC-257 > 100 µM | MOLT-4 25.2 µM | HCC 2998 > 100 µM | OVCAR-4 > 100 µM

Source: ChEMBL document CHEMBL1201862, “PubChem BioAssay data set” (2004)
